In patent publication US20080248511A1, “METHODS TO QUENCH LIGHT FROM OPTICAL REACTIONS” (priority 2007, published 2008):

Key:
Renilla luciferase = biological target: T1, Renilla luciferase (Renilla reniformis, UniProt P27652); experiment: Non-detergent compound screen, Renilla luciferase (Example 6); type: biochemical; conditions: for remaining activity at 10 µM / remaining activity at 100 µM / remaining activity at 1000 µM / remaining activity at 23 µM / remaining activity at 153 µM / Retained Renilla Luciferase Value (%): 0.5% Tergitol NP-9, 0.03% BDDABr; for remaining activity at 10 µM / remaining activity at 100 µM / remaining activity at 1000 µM / remaining activity at 23 µM / remaining activity at 153 µM: read-out: Retained Renilla Luciferase Value (%)
T1 sequence (P27652 1-311): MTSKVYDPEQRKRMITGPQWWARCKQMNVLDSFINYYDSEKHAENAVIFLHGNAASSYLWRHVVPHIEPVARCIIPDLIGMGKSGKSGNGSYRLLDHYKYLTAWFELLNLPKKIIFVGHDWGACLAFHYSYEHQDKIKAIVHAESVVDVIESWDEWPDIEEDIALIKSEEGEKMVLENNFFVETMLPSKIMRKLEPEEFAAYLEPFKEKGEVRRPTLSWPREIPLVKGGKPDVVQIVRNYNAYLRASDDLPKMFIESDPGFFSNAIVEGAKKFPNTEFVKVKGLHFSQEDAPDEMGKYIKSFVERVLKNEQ
Procedure: (§1) Each compound was diluted into 200 mM MOPS pH 6.7, 4 μM MgSO4, 1 mM CDTA, 0.5% Tergitol NP-9, 0.05% Mazu-DF-204, 0.03% BDDABr, 30 mM thiourea, 1 mM bis-(2-mercaptoethylsulfone) (BMS), 4 μM CoA, and 1 μM 5-fluoroluciferin. Just prior to the luciferase reaction, 0.1% Prionex® (Pentapharm) and 2.9 μM coelenterazine-h (Promega) were added to each solution.
(§2) The firefly luciferase and Renilla luciferase enzymes were diluted as described in Examples 3 and 5. The luciferase reactions were initiated by adding 50 μl of the firefly luciferase and Renilla luciferase enzyme solution to 50 μl of reagent solution. The reactions were performed as described above. The retained Renilla and firefly luciferase-mediated luminescence and selectivity values for each inhibitor tested are listed in Table 6.

firefly luciferase = firefly luciferase (Photinus pyralis, UniProt P08659); experiment: Non-detergent compound screen, firefly luciferase (Example 6); type: biochemical; conditions: 0.5% Tergitol NP-9, 0.03% BDDABr; for remaining activity at 10 µM / remaining activity at 100 µM / remaining activity at 1000 µM / remaining activity at 23 µM / remaining activity at 153 µM: read-out: Retained Firefly Luciferase Value (%); for remaining activity at 23 µM: inhibitor 23 μM; for remaining activity at 153 µM: inhibitor 153 μM
Chain of firefly luciferase (P08659 whole entry): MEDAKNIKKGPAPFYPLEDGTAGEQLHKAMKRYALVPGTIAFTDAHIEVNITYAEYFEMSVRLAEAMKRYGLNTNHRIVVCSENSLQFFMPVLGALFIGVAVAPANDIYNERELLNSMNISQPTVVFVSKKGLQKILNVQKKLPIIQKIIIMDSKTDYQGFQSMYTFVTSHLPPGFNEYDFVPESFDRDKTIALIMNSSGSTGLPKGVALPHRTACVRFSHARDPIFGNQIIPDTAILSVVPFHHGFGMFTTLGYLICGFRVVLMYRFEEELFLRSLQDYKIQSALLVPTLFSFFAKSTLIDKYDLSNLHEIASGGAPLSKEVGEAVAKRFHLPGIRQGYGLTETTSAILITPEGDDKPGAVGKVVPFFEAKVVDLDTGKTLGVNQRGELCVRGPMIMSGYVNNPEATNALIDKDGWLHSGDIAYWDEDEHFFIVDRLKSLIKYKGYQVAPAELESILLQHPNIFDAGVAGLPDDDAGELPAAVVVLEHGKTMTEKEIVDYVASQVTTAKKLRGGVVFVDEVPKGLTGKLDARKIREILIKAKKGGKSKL
Procedure: as §1, §2

## COc1ccc(CNC(=O)/C=C/c2ccc3c(c2)c(CCN(C)C)cn3Cc2ccccc2)cc1 [Compound 3055, (E)-3-(1-benzyl-3-(2-(dimethylamino)ethyl)-1H-indol-5-yl)-N-(4-methoxybenzyl)acrylamide]
Renilla luciferase
  inhibitor of Renilla luciferase, grade in words: inhibitors of Renilla luciferase
Renilla luciferase; inhibitor 10 μM
  Selectivity Value: 1.2
  remaining activity at 10 µM: 85%
Renilla luciferase; inhibitor 100 μM
  Selectivity Value: 2.2
  remaining activity at 100 µM: 44%
Renilla luciferase; inhibitor 1000 μM
  Selectivity Value: 5.0
  remaining activity at 1000 µM: 20%
Firefly luciferase; inhibitor 10 μM
  remaining activity at 10 µM: 100%
Firefly luciferase; inhibitor 100 μM
  remaining activity at 100 µM: 98%
Firefly luciferase; inhibitor 1000 μM
  remaining activity at 1000 µM: 99%

## C=C(C(=O)NCc1ccc(OC)cc1)c1ccc2[nH]ccc2c1 [Compound 3054, 2-(1H-indol-5-yl)-N-(4-methoxybenzyl)acrylamide]
Renilla luciferase
  inhibitor of Renilla luciferase, grade in words: suitable inhibitors of Renilla luciferase
Renilla luciferase; inhibitor 23 μM
  Selectivity Value: 1.1
  remaining activity at 23 µM: 95%
Renilla luciferase; inhibitor 153 μM
  Selectivity Value: 1.1
  remaining activity at 153 µM: 95%
Renilla luciferase; inhibitor 1000 μM
  Selectivity Value: 1.1
  remaining activity at 1000 µM: 93.3%
Firefly luciferase
  remaining activity at 23 µM: 101%
  remaining activity at 153 µM: 102%
Firefly luciferase; inhibitor 1000 μM
  remaining activity at 1000 µM: 101%

## COc1ccc(CNC(=O)/C=C/c2ccc3[nH]cc(CCN(C)C)c3c2)c(OC)c1 [Compound 3051, (E)-N-(2,4-dimethoxybenzyl)-3-(3-(2-(dimethylamino)ethyl)-1H-indol-5-yl)acrylamide]
Renilla luciferase
  inhibitor of Renilla luciferase, grade in words: excellent inhibitors of Renilla luciferase
Renilla luciferase; inhibitor 10 μM
  Selectivity Value: 1.9
  remaining activity at 10 µM: 55%
Renilla luciferase; inhibitor 100 μM
  Selectivity Value: 7.3
  remaining activity at 100 µM: 14%
Renilla luciferase; inhibitor 1000 μM
  Selectivity Value: 53.7
  remaining activity at 1000 µM: 1.9%
Firefly luciferase; inhibitor 10 μM
  remaining activity at 10 µM: 102%
Firefly luciferase; inhibitor 100 μM
  remaining activity at 100 µM: 102%
Firefly luciferase; inhibitor 1000 μM
  remaining activity at 1000 µM: 102%

## C=C(C(=O)NCc1ccc(OC)cc1)c1ccc2oc(=O)cc(C)c2c1 [Compound 3058, N-(4-methoxybenzyl)-2-(4-methyl-2-oxo-2H-chromen-6-yl)acrylamide]
Renilla luciferase
  inhibitor of Renilla luciferase, grade in words: suitable inhibitors of Renilla luciferase
Renilla luciferase; inhibitor 23 μM
  Selectivity Value: 1.05
  remaining activity at 23 µM: 96%
Renilla luciferase; inhibitor 153 μM
  Selectivity Value: 1.04
  remaining activity at 153 µM: 98%
Renilla luciferase; inhibitor 1000 μM
  Selectivity Value: 1.04
  remaining activity at 1000 µM: 98.8%
Firefly luciferase
  remaining activity at 23 µM: 101%
  remaining activity at 153 µM: 102%
Firefly luciferase; inhibitor 1000 μM
  remaining activity at 1000 µM: 103%

## COc1ccc(CNC(=O)/C=C/c2ccc3c(ccc[n+]3C)c2)cc1.[I-] [Compound 3061, (E)-6-(3-(4-methoxybenzylamino)-3-oxoprop-1-enyl)-1-methylquinolinium iodide]
Renilla luciferase
  inhibitor of Renilla luciferase, grade in words: inhibitors of Renilla luciferase
Renilla luciferase; inhibitor 10 μM
  Selectivity Value: 1.1
  remaining activity at 10 µM: 96%
Renilla luciferase; inhibitor 100 μM
  Selectivity Value: 1.8
  remaining activity at 100 µM: 85%
Renilla luciferase; inhibitor 1000 μM
  Selectivity Value: 2.3
  remaining activity at 1000 µM: 36%
Firefly luciferase; inhibitor 10 μM
  remaining activity at 10 µM: 103%
Firefly luciferase; inhibitor 100 μM
  remaining activity at 100 µM: 100%
Firefly luciferase; inhibitor 1000 μM
  remaining activity at 1000 µM: 82%

## COc1ccc(CNC(=O)/C=C/c2ccc3[nH]cc(CN(C)C)c3c2)cc1 [Compound 3067, (E)-3-(3-((dimethylamino)methyl)-1H-indol-5-yl)-N-(4-methoxybenzyl)acrylamide]
Renilla luciferase
  inhibitor of Renilla luciferase, grade in words: excellent inhibitors of Renilla luciferase
Renilla luciferase; inhibitor 10 μM
  Selectivity Value: 1.3
  remaining activity at 10 µM: 79%
Renilla luciferase; inhibitor 100 μM
  Selectivity Value: 2.9
  remaining activity at 100 µM: 34%
Renilla luciferase; inhibitor 1000 μM
  Selectivity Value: 14.3
  remaining activity at 1000 µM: 7%
Firefly luciferase; inhibitor 10 μM
  remaining activity at 10 µM: 100%
Firefly luciferase; inhibitor 100 μM
  remaining activity at 100 µM: 99%
Firefly luciferase; inhibitor 1000 μM
  remaining activity at 1000 µM: 100%

## COc1cc(CNC(=O)/C=C/c2ccc3[nH]cc(CCN(C)C)c3c2)cc(OC)c1OC [Compound 3072, (E)-3-(3-(2-(dimethylamino)ethyl)-1H-indol-5-yl)-N-(3,4,5-trimethoxybenzyl)acrylamide]
Renilla luciferase
  inhibitor of Renilla luciferase, grade in words: inhibitors of Renilla luciferase
Renilla luciferase; inhibitor 10 μM
  Selectivity Value: 1
  remaining activity at 10 µM: 101%
Renilla luciferase; inhibitor 100 μM
  Selectivity Value: 1.1
  remaining activity at 100 µM: 95%
Renilla luciferase; inhibitor 1000 μM
  Selectivity Value: 1.8
  remaining activity at 1000 µM: 55.2%
Firefly luciferase; inhibitor 10 μM
  remaining activity at 10 µM: 101%
Firefly luciferase; inhibitor 100 μM
  remaining activity at 100 µM: 101%
Firefly luciferase; inhibitor 1000 μM
  remaining activity at 1000 µM: 101%

## CCCCCC[N+](C)(C)CCc1c[nH]c2ccc(/C=C/C(=O)NCc3ccc(OC)cc3)cc12.[I-] [Compound 3078, (E)-N-(2-(5-(3-(4-methoxybenzylamino)-3-oxyprop-1-enyl)-1H-indol-3-yl)ethyl)-N,N-dimethylhexan-1-aminium iodide]
Renilla luciferase; inhibitor 10 μM
  Selectivity Value: 20
  Retained Renilla Luciferase Value (%): 5.0%
Renilla luciferase; inhibitor 100 μM
  Selectivity Value: 100
  Retained Renilla Luciferase Value (%): 1.0%
Renilla luciferase; inhibitor 1000 μM
  Selectivity Value: 990
  Retained Renilla Luciferase Value (%): 0.1%
Firefly luciferase; inhibitor 10 μM
  Retained Firefly Luciferase Value (%): 100%
Firefly luciferase; inhibitor 100 μM
  Retained Firefly Luciferase Value (%): 100%
Firefly luciferase; inhibitor 1000 μM
  Retained Firefly Luciferase Value (%): 99%

## COc1ccc(CNC(=O)COc2ccc3[nH]cc(CCN(C)C)c3c2)cc1 [Compound 3031, 2-(3-(2-(dimethylamino)ethyl)-1H-indol-5-yloxy)-N-(4-methoxybenzyl)acetamide]
Renilla luciferase
  inhibitor of Renilla luciferase, grade in words: suitable inhibitors of Renilla luciferase
Renilla luciferase; inhibitor 23 μM
  Selectivity Value: 1
  remaining activity at 23 µM: 96%
Renilla luciferase; inhibitor 153 μM
  Selectivity Value: 0.99
  remaining activity at 153 µM: 90%
Renilla luciferase; inhibitor 1000 μM
  Selectivity Value: 1.4
  remaining activity at 1000 µM: 66.5%
Firefly luciferase
  remaining activity at 23 µM: 96%
  remaining activity at 153 µM: 89%
Firefly luciferase; inhibitor 1000 μM
  remaining activity at 1000 µM: 89%

## CN(C)CCc1c[nH]c2ccc(/C=C/C(=O)N3CCOCC3)cc12 [Compound 3064, (E)-3-(3-(2-(dimethylamino)ethyl)-1H-indol-5-yl)-1-morpholinoprop-2-en-1-one]
Renilla luciferase
  inhibitor of Renilla luciferase, grade in words: excellent inhibitors of Renilla luciferase
Renilla luciferase; inhibitor 10 μM
  Selectivity Value: 1.3
  remaining activity at 10 µM: 81%
Renilla luciferase; inhibitor 100 μM
  Selectivity Value: 2.9
  remaining activity at 100 µM: 35%
Renilla luciferase; inhibitor 1000 μM
  Selectivity Value: 11.4
  remaining activity at 1000 µM: 9%
Firefly luciferase; inhibitor 10 μM
  remaining activity at 10 µM: 102%
Firefly luciferase; inhibitor 100 μM
  remaining activity at 100 µM: 101%
Firefly luciferase; inhibitor 1000 μM
  remaining activity at 1000 µM: 103%

## COc1ccc(CNC(=O)/C=C/c2ccc3oc(=O)cc(C)c3c2)cc1 [Compound 3057, (E)-N-(4-methoxybenzyl)-3-(4-methyl-2-oxo-2H-chromen-6-yl)acrylamide]
Renilla luciferase
  inhibitor of Renilla luciferase, grade in words: suitable inhibitors of Renilla luciferase
Renilla luciferase; inhibitor 23 μM
  Selectivity Value: 1
  remaining activity at 23 µM: 100%
Renilla luciferase; inhibitor 153 μM
  Selectivity Value: 1.1
  remaining activity at 153 µM: 93%
Renilla luciferase; inhibitor 1000 μM
  Selectivity Value: 1.3
  remaining activity at 1000 µM: 77.5%
Firefly luciferase
  remaining activity at 23 µM: 100%
  remaining activity at 153 µM: 98%
Firefly luciferase; inhibitor 1000 μM
  remaining activity at 1000 µM: 102%

## COc1ccc(CNC(=O)/C=C/c2ccc3c(c2)c(CCN(C)C)cn3C)cc1 [Compound 3049, (E)-3-(3-(2-(dimethylamino)ethyl)-1-methyl-1H-indol-5-yl)-N-(4-methoxybenzyl)acrylamide]
Renilla luciferase
  inhibitor of Renilla luciferase, grade in words: excellent inhibitors of Renilla luciferase

## COc1ccc(CNC(=O)/C=C/c2ccc3[nH]cc(CCN(C)C)c3c2)cc1 [Compound 3068, (E)-3-(3-(2-(dimethylamino)ethyl)-1H-indol-5-yl)-N-(4-methoxybenzyl)acrylamide]
Renilla luciferase
  inhibitor of Renilla luciferase, grade in words: excellent inhibitors of Renilla luciferase
Renilla luciferase; inhibitor 10 μM
  Selectivity Value: 2.5
  remaining activity at 10 µM: 40%
Renilla luciferase; inhibitor 100 μM
  Selectivity Value: 10.2
  remaining activity at 100 µM: 10%
Renilla luciferase; inhibitor 1000 μM
  Selectivity Value: 48.6
  remaining activity at 1000 µM: 2.1%
Firefly luciferase; inhibitor 10 μM
  remaining activity at 10 µM: 101%
Firefly luciferase; inhibitor 100 μM
  remaining activity at 100 µM: 102%
Firefly luciferase; inhibitor 1000 μM
  remaining activity at 1000 µM: 102%

## CN(C)CCc1c[nH]c2ccc(/C=C/C(=O)NCc3ccc(N(C)C)cc3)cc12 [Compound 3043, (E)-N-(4-(dimethylamino)benzyl)-3-(3-(2-(dimethylamino)ethyl)-1H-indol-5-yl)acrylamide]
Renilla luciferase
  inhibitor of Renilla luciferase, grade in words: excellent inhibitors of Renilla luciferase
